Patent publication US20180296663A1 (priority 2015, published 2018)

Experiments:
[1] = test system: CD4+ T cells; set-up: species or system BALB/c mice; conditions: mouse, in vivo
[2] = test system: CD8+ T cells; set-up: species or system Balb/c mice; conditions: mouse, in vivo

| Molecule | frequencies of HA-specific IFN-γ+/TNF+ CD4+ T cells [1] | frequencies of HA-specific IFN-γ+/TNF+CD4+ T cells [1] | number of IFNγ/TNF double-positive multifunctional CD8+ T cells in the spleen [2] |
| --- | --- | --- | --- |
| Nc1nc2c(ncn2[C@@H]2O[C@@H]3COP(=O)(O)O[C@H]4[C@@H](O)[C@H](n5cnc6c(=O)[nH]c(N)nc65)O[C@@H]4COP(=O)(O)O[C@H]3[C@H]2O)c(=O)[nH]1 [c-di-GMP, cyclic diguanylate monophosphate] | higher frequencies | higher frequencies | – |
| HMGB1: high mobility group protein (HMGB) compound, which may act as an endogenous immunomodulator | – | – | significant increase |
